This note sets out measurements from patent US10399971B2, “Compound for treating or preventing hyperuricemia or gout” (JIANGSU ATOM BIOSCIENCE AND PHARMACEUTICAL CO., LTD., priority 2015, dated 2019).

The target in one assay is T1, hURAT1 (Homo sapiens, UniProt Q96S37).
T1 sequence (Q96S37 1-553): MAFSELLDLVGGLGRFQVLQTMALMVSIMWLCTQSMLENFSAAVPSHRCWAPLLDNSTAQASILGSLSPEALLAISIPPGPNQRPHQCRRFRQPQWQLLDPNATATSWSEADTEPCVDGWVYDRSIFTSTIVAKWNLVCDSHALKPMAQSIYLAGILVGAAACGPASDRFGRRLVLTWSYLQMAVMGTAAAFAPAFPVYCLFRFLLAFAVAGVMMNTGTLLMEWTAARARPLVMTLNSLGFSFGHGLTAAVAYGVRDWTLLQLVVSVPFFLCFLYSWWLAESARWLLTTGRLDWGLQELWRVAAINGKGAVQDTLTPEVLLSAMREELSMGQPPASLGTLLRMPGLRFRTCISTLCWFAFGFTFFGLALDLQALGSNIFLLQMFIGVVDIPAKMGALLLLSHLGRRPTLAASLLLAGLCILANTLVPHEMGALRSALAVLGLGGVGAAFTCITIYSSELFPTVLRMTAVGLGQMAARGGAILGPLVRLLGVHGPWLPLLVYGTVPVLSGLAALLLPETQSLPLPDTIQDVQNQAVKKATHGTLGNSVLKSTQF
As to the kind of experiment: Inhibition assay of uric acid transport in HEK293-hURAT1 transfection cell line. In kind it is cell-based. The note with it: 500 nM; HEK293-hURAT1 transfection cell line; 14C-uric acid; average of three tests; 0.5 µM. The protocol: 2.1 Construction of a HEK293 stable cell line with high expression of hURAT1: The plasmid pCMV6-hURAT1 was transfected into HEK293 cells, then the stable strain was obtained by the G418 (final concentration 500 μg/mL) resistance screening, which is the high expression of hURAT1 transporter membrane protein.
2.2 To a coated 24-well plate was added 200 μL of 0.1 mg/mL poly-lysine per well and the plate was left overnight. Poly-lysine was removed from wells. The wells were cleaned thoroughly with aseptic water and dried for use.
2.3 To the above coated 24 well plate was added HEK293-hURAT1 stable cells (2×10^5 cells per well). The cells was cultured at 37° C. under 5% CO2 for 3 days.
The solution was fully mixed to give HBSS buffer (pH value: 7.4). The buffer was stored at −20° C.
2.5 The HBSS buffer was warmed to 37° C. in a water bath. Washed cells with HBSS twice, added 160 μL of HBSS and 20 μL test compound per well. The final concentration of tested compound per well is 500 nM. The blank control well contains only 180 μL of HBSS without tested compound. The plate was placed at room temperature for 30 min.
2.6 To each well was added 20 μL of 50 μM ^14C-Uric acid. The plate was placed at room temperature for 20 min.
2.7 The solution in each well was removed and the cells in each well were washed with pre-cooled HBSS buffer. To each well was added 0.2 M NaOH to dissolve the cells. The solution containing cell fragments was collected and the right amount of scintillation liquid was added.
The formula for calculating the inhibitory rate of uric acid transport for compounds was shown as below: […]

For assay [1], the system named is human normal liver cell line L-02. Put plainly: Cytotoxicity test on human normal liver cell line L-02 (Alamar Blue). The class given is cell-based. The note with it: L02, L-02 cells, 120 h incubation, cell viability, read-out: half inhibitory concentration (IC50) against L-02. The protocol:
2.1 The normal liver cell lines L-02 and WRL-68 were cultured with DMEM culture medium (containing 10% of fetal bovine serum, 100 U/mL of penicillin and 0.1 mg/mL of streptomycin) in an incubator under 5% CO2 at 37° C. until the cell density was about 90%, respectively.
2.3 Tested compounds and benzbromarone at different concentration gradients were prepared by using the DMEM culture medium and added into wells at 100 μL/well as compounds wells. The DMEM culture medium was added into wells at 100 μL/well without tested compound as negative control wells.
This 10× Alamar Blue solution was diluted into 1× Alamar Blue solution with phenol red free DMEM culture medium before use.
2.5 The cells were washed with PBS (0.1 M, pH=7.4) twice. The Alamar Blue solution was added into wells at 100 μL/well. 100 μL of Alamar Blue solution was added into wells without cells to serve as blank control wells. The 96-well plate was placed in an incubator under 5% CO2 at 37° C. for 3 h. Each concentration of compound was repeated three times during the test.
The fluorescence value of the cells containing compound is the F(test compound); the fluorescence value of the cells without compound as blank control is the F(blank control); the fluorescent value of the cells from negative control group is F(negative control). The average value and standard deviation of cell viability of three repeated concentrations was calculated by the following formula: […]
2.7 The half inhibitory concentration (IC50) of the compound for the cells L-02 and WRL-68 was obtained from the cell viability by Prism Graph software.
For orientation: The colour change of resazurin is a common sign of viable cells or microbes.

Regarding `CCc1nc2ccccn2c1C(=O)c1cc(Br)c(O)c(C#N)c1` [Compound 74, 3-bromo-5-(2-ethylimidazo[1,2-a]pyridine-3-carbonyl)-2-hydroxybenzonitrile hydrogen chloride], the “Inhibitory rates of uric acid transport, ±SD (%)” value on hURAT1 is 62.75 ± 5.73%. In addition, the IC50 in assay [1] is over 100 µM.
